Data published in article PMC9229919, “4-Aminoquinoline-Based Adamantanes as Potential Anticholinesterase Agents in Symptomatic Treatment of Alzheimer’s Disease” (Pharmaceutics, 2022).
Read-outs that look alike come from different tables or passages of the source.

Assays:
[1] = standard compounds of the interpolation method; cited from earlier work
[2] = molecular target: T1, recombinant human AChE (Homo sapiens, UniProt P22303); assay: biochemical; type: biochemical; details: for IS: IS = Ki(BChE)/Ki(AChE), IS > 1 selective to AChE
T1 construct: gift of Dr Florian Nachon (Armed Forces Biomedical Research Institute, Brétigny-sur-Orge, France)
How it was run: (§1)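 Modified Ellman assay with acetylthiocholine and DTNB in 0.1 M sodium phosphate pH 7.4 (enzymes diluted with 0.1% BSA), ≤0.2% DMSO, 25 °C. At least three inhibitor concentrations per substrate level; Ki,app from Hunter–Downs equation, Ki from y-intercept and inhibition type from Ki,app vs [S].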

[3] = molecular target: T2, purified human BChE (Homo sapiens, UniProt P06276); assay: biochemical; type: biochemical
T2 construct: possibly also a gift of Dr Florian Nachon (the sentence is ambiguous)
How it was run: as §1

[4] = molecular target: T2, purified human BChE; parameters: method as in PMID 31600664; details: previously tested derivative 2 (CQAd); ref [38]; cited from earlier work
[5] = Reverse-phase thin-layer chromatographic lipophilicity (RF, RM0); type: physicochemical; details: for RM0: intercept of RM = RM0 + bC; for b: slope of RM = RM0 + bC; for RF, Methanol/Water/Hydrochloric acid (conc.), mobile phase I / RF, Dioxane/Water/Hydrochloric acid (conc.), mobile phase II / RF, Methanol/Water/Hydrochloric acid (conc.), mobile phase II / RF, Acetone/Water/Hydrochloric acid (conc.), mobile phase III / RF, Dioxane/Water/Hydrochloric acid (conc.), mobile phase III / RF, Methanol/Water/Hydrochloric acid (conc.), mobile phase III / RF, Dioxane/Water/Hydrochloric acid (conc.), mobile phase IV / RF, Acetone/Water/Hydrochloric acid (conc.), mobile phase IV / RF, Methanol/Water/Hydrochloric acid (conc.), mobile phase IV / RF, Acetone/Water/Hydrochloric acid (conc.), mobile phase IX / RF, Methanol/Water/Hydrochloric acid (conc.), mobile phase IX / RF, Dioxane/Water/Hydrochloric acid (conc.), mobile phase V / RF, Acetone/Water/Hydrochloric acid (conc.), mobile phase V / RF, Methanol/Water/Hydrochloric acid (conc.), mobile phase V / RF, Dioxane/Water/Hydrochloric acid (conc.), mobile phase VI / RF, Acetone/Water/Hydrochloric acid (conc.), mobile phase VI / RF, Methanol/Water/Hydrochloric acid (conc.), mobile phase VI / RF, Acetone/Water/Hydrochloric acid (conc.), mobile phase VII / RF, Methanol/Water/Hydrochloric acid (conc.), mobile phase VII / RF, Acetone/Water/Hydrochloric acid (conc.), mobile phase VIII / RF, Methanol/Water/Hydrochloric acid (conc.), mobile phase VIII: RP-18 silica; for RF, Methanol/Water/Hydrochloric acid (conc.), mobile phase I: I = 90%MeOH/5%H2O/5%HCl; for RF, Dioxane/Water/Hydrochloric acid (conc.), mobile phase II: II = 80%Dioxane/15%H2O/5%HCl; for RF, Methanol/Water/Hydrochloric acid (conc.), mobile phase II: II = 85%MeOH/10%H2O/5%HCl; for RF, Acetone/Water/Hydrochloric acid (conc.), mobile phase III: III = 70%AC/25%H2O/5%HCl; for RF, Dioxane/Water/Hydrochloric acid (conc.), mobile phase III: III = 70%Dioxane/25%H2O/5%HCl; for RF, Methanol/Water/Hydrochloric acid (conc.), mobile phase III: III = 80%MeOH/15%H2O/5%HCl; for RF, Dioxane/Water/Hydrochloric acid (conc.), mobile phase IV: IV = 60%Dioxane/35%H2O/5%HCl; for RF, Acetone/Water/Hydrochloric acid (conc.), mobile phase IV: IV = 65%AC/30%H2O/5%HCl; for RF, Methanol/Water/Hydrochloric acid (conc.), mobile phase IV: IV = 75%MeOH/20%H2O/5%HCl; for RF, Acetone/Water/Hydrochloric acid (conc.), mobile phase IX: IX = 40%AC/55%H2O/5%HCl; for RF, Methanol/Water/Hydrochloric acid (conc.), mobile phase IX: IX = 50%MeOH/45%H2O/5%HCl; for RF, Dioxane/Water/Hydrochloric acid (conc.), mobile phase V: V = 50%Dioxane/45%H2O/5%HCl; for RF, Acetone/Water/Hydrochloric acid (conc.), mobile phase V: V = 60%AC/35%H2O/5%HCl; for RF, Methanol/Water/Hydrochloric acid (conc.), mobile phase V: V = 70%MeOH/25%H2O/5%HCl; for RF, Dioxane/Water/Hydrochloric acid (conc.), mobile phase VI: VI = 40%Dioxane/55%H2O/5%HCl; for RF, Acetone/Water/Hydrochloric acid (conc.), mobile phase VI: VI = 55%AC/40%H2O/5%HCl; for RF, Methanol/Water/Hydrochloric acid (conc.), mobile phase VI: VI = 65%MeOH/30%H2O/5%HCl; for RF, Acetone/Water/Hydrochloric acid (conc.), mobile phase VII: VII = 50%AC/45%H2O/5%HCl; for RF, Methanol/Water/Hydrochloric acid (conc.), mobile phase VII: VII = 60%MeOH/35%H2O/5%HCl; for RF, Acetone/Water/Hydrochloric acid (conc.), mobile phase VIII: VIII = 45%AC/50%H2O/5%HCl; for RF, Methanol/Water/Hydrochloric acid (conc.), mobile phase VIII: VIII = 55%MeOH/40%H2O/5%HCl
How it was run: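 Lipophilicity from RP-TLC retention at 22±2 °C over a 4.5 cm development distance. Eluents: organic modifier (methanol, acetone or dioxane), water and hydrochloric acid, methanol stepped by 10%. RM0 obtained from RF.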

[6] = Ferric reducing antioxidant power (FRAP) assay; details: for FRAP: mean ± standard error of three experiments;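 as to FRAP: expressed as µM Fe2+ equivalents from an FeSO4·7H2O standard curve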
How it was run: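 Ferric-TPTZ reduction measured by absorbance at 593 nm after 60 min at 37 °C in pH 3.6 acetate-buffered TPTZ/FeCl3 reagent, with test compounds at 10 and 100 µM. FRAP values calculated from an Fe2SO4·7H2O standard curve. Data from three independent experiments.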

[7] = physchem; details: octadecyl-modified silica RP-18W F254s TLC plates, pH 0.5
From the text: The mobile phase contained an organic modifier (methanol, acetone or dioxane), water, and hydrochloric acid. The content of hydrochloric acid was kept constant at 5% v/v, while the portions of organic modifier and water varied. […] Mobile phase MeOH/H2O/HCl, 70:25:5 (vol%) was used to determine the partition coefficients, logDexp, of the tested compounds at pH 0.5 (Supplementary Materials File S3 Table S7).
Chromatographic determination of lipophilicity
Lipophilicity of synthesized compounds was evaluated under reversed-phase thin-layer
chromatographic condition using the vertical developing chamber (CAMAG, Muttenz, Switzerland)
The mobile phase contained organic modifier (methanol, acetone or dioxane), water and hydrochloric acid. The content of hydrochloric acid was kept constant at 5 %v/v
while the portion of the organic modifier and water were changed. Methanol was varied in the range
with an increment of 10%. The chamber was saturated with a mobile phase being used 15 minutes
before chromatogram development. The solvent developing distance was 4.5 cm. Detection of
All experiments were performed at ambient temperature (22±2 °C). Retention parameters were calculated as previously described [7].
The logD values of the investigated substances were determined by the interpolation procedure. […]
LogD values of the investigated substances were determined from the equation of the calibration […]

[8] = logarithm of Ki in µM, BChE, dependent variable of the QSAR model, read-out: Y Measured 2 log(ki)Bche, log (Ki/µM BChE) (converted)
[9] = Acetone/Water/Hydrochloric acid (conc.)
[10] = Dioxane/Water/Hydrochloric acid (conc.)
[11] = Methanol/Water/Hydrochloric acid (conc.)
[12] = log (Ki/µM AChE), read-out: Y Measured 1 log(ki)Ache (converted)
[13] = ± standard error, 25 °C, ATCh substrate, read-out: Ki AChE
[14] = ± standard error, 25 °C, ATCh substrate, read-out: Ki BChE

T2 sequence (P06276 29-602): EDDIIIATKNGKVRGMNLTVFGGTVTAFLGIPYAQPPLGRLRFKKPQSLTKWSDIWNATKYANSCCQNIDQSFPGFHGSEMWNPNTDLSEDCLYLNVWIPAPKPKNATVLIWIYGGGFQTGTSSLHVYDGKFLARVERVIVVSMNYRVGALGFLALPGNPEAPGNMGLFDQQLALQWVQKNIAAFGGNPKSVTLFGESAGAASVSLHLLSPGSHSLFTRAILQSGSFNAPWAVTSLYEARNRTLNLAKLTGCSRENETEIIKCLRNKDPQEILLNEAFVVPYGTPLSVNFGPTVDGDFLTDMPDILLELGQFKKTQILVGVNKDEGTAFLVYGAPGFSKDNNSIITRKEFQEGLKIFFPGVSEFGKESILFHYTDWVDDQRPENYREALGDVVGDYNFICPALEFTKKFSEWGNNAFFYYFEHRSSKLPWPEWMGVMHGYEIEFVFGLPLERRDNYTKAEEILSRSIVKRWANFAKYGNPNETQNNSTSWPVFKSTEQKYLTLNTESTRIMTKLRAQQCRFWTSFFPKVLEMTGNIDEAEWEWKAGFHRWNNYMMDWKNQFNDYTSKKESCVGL
T1 sequence (P22303 32-614): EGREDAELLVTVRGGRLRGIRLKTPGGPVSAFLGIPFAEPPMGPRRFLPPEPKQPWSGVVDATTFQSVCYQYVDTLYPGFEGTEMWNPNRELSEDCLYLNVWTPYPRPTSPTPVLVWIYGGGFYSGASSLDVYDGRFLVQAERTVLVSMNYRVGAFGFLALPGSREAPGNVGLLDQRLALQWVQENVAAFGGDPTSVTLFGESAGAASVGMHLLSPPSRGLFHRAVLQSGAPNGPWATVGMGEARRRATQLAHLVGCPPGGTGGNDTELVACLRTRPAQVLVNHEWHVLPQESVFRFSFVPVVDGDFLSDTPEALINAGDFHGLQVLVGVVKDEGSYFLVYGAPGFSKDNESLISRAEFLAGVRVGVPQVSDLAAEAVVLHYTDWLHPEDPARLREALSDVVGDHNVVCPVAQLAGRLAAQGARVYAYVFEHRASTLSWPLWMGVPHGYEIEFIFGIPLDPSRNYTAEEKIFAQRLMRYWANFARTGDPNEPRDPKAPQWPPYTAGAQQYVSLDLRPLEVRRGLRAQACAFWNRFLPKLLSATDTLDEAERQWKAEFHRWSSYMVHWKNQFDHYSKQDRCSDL

SMILES	IS [2]	Ki [3, 8] [µM]	RM0 [5, 9]	b [5, 9]	RM0 [5, 10]	b [5, 10]	RM0 [5, 11]	b [5, 11]	RF, Methanol/Water/Hydrochloric acid (conc.), mobile phase I [5]	RF, Dioxane/Water/Hydrochloric acid (conc.), mobile phase II [5]	RF, Methanol/Water/Hydrochloric acid (conc.), mobile phase II [5]	RF, Acetone/Water/Hydrochloric acid (conc.), mobile phase III [5]	RF, Dioxane/Water/Hydrochloric acid (conc.), mobile phase III [5]	RF, Methanol/Water/Hydrochloric acid (conc.), mobile phase III [5]	RF, Dioxane/Water/Hydrochloric acid (conc.), mobile phase IV [5]	RF, Acetone/Water/Hydrochloric acid (conc.), mobile phase IV [5]	RF, Methanol/Water/Hydrochloric acid (conc.), mobile phase IV [5]	RF, Acetone/Water/Hydrochloric acid (conc.), mobile phase IX [5]	RF, Methanol/Water/Hydrochloric acid (conc.), mobile phase IX [5]	RF, Dioxane/Water/Hydrochloric acid (conc.), mobile phase V [5]	further results
Oc1ccc(Cl)cc1Cl [2,4-dihlorfenol]																					pKa1 [1]: 7.89
Oc1cccc2ccccc12 [Compound 1-naftol]																					pKa1 [1]: 9.34
Clc1ccc2c(NCCCNCC34CC5CC(CC(C5)C3)C4)ccnc2c1 [Compound 2]	4.2	3.2	1.795	2.949	0.8129	1.796	2.34	3.123	0.73	0.78	0.67	0.61	0.73	0.52	0.73	0.58	0.53	0.15	0.11	0.55	Y Measured 1 log(ki)Ache ([2]; log (Ki/µM AChE)): -1.14E-01; less potent inhibitors of BChE than compounds 3 or 4 [3]: about 3.2 times; Ki [4]: 3.2 ± 0.4 µM; RF, Acetone/Water/Hydrochloric acid (conc.), mobile phase V [5]: 0.5; RF, Methanol/Water/Hydrochloric acid (conc.), mobile phase V [5]: 0.47; RF, Dioxane/Water/Hydrochloric acid (conc.), mobile phase VI [5]: 0.4; RF, Acetone/Water/Hydrochloric acid (conc.), mobile phase VI [5]: 0.41; RF, Methanol/Water/Hydrochloric acid (conc.), mobile phase VI [5]: 0.43; RF, Acetone/Water/Hydrochloric acid (conc.), mobile phase VII [5]: 0.35; RF, Methanol/Water/Hydrochloric acid (conc.), mobile phase VII [5]: 0.25; RF, Acetone/Water/Hydrochloric acid (conc.), mobile phase VIII [5]: 0.3; RF, Methanol/Water/Hydrochloric acid (conc.), mobile phase VIII [5]: 0.19; FRAP ([6]; 10 µM compound): 19 ± 2 µM; FRAP ([6]; 100 µM compound): 64 ± 5 µM
Clc1ccc2c(Nc3cccc4c(NCCC56CC7CC(CC(C7)C5)C6)cccc34)ccnc2c1 [Compound 19]	5.8	21.9	1.657	2.289	1.551	2.623	3.685	4.54	0.67	0.7	0.61	0.49	0.66	0.44	0.63	0.41	0.35	0.15	0	0.53	Ki [2, 12]: 3.8 µM; Ki [2, 13]: 3.8 ± 0.3 µM; decrease in BChE inhibition vs compound 5 [3]: up to 275 times; Ki [3, 14]: 22 ± 2 µM; chromatographic logD [7]: -4.12; RF, Acetone/Water/Hydrochloric acid (conc.), mobile phase V [5]: 0.3; RF, Methanol/Water/Hydrochloric acid (conc.), mobile phase V [5]: 0.3; RF, Dioxane/Water/Hydrochloric acid (conc.), mobile phase VI [5]: 0.13; RF, Acetone/Water/Hydrochloric acid (conc.), mobile phase VI [5]: 0.28; RF, Methanol/Water/Hydrochloric acid (conc.), mobile phase VI [5]: 0.21; RF, Acetone/Water/Hydrochloric acid (conc.), mobile phase VII [5]: 0.25; RF, Methanol/Water/Hydrochloric acid (conc.), mobile phase VII [5]: 0.1; RF, Acetone/Water/Hydrochloric acid (conc.), mobile phase VIII [5]: 0.2; RF, Methanol/Water/Hydrochloric acid (conc.), mobile phase VIII [5]: 0.04; FRAP ([6]; 10 µM compound): 336 ± 12 µM; FRAP ([6]; 100 µM compound): 2450 ± 210 µM; reducing power (in words) ([6]; 10 and 100 µM): very good reducing power comparable to that of BHT and Trolox
Clc1ccc2c(NCCCN3CCN(CCCNCC45CC6CC(CC(C6)C4)C5)CC3)ccnc2c1 [Compound 22]	4.8	3.3	1.4989	2.763	0.5478	1.493	1.56	2.199	0.67	0.78	0.7	0.71	0.76	0.6	0.78	0.68	0.59	0.28	0.22	0.6	Ki [2, 12]: 0.69 µM; Ki [2, 13]: 0.69 ± 0.02 µM; Ki [3, 14]: 3.3 ± 0.2 µM; RF, Acetone/Water/Hydrochloric acid (conc.), mobile phase V [5]: 0.61; RF, Methanol/Water/Hydrochloric acid (conc.), mobile phase V [5]: 0.5; RF, Dioxane/Water/Hydrochloric acid (conc.), mobile phase VI [5]: 0.48; RF, Acetone/Water/Hydrochloric acid (conc.), mobile phase VI [5]: 0.51; RF, Methanol/Water/Hydrochloric acid (conc.), mobile phase VI [5]: 0.45; RF, Acetone/Water/Hydrochloric acid (conc.), mobile phase VII [5]: 0.43; RF, Methanol/Water/Hydrochloric acid (conc.), mobile phase VII [5]: 0.38; RF, Acetone/Water/Hydrochloric acid (conc.), mobile phase VIII [5]: 0.36; RF, Methanol/Water/Hydrochloric acid (conc.), mobile phase VIII [5]: 0.31; FRAP ([6]; 10 µM compound): 11 ± 3 µM; FRAP ([6]; 100 µM compound): 34 ± 8 µM
